We go through one substance from patent US20170009228A1, “BIOLOGICAL MATERIALS AND THERAPEUTIC USES THEREOF” (IMPERIAL INNOVATIONS LIMITED, priority 2014, published 2017).

One test deals with RA synovial fibroblasts. Briefly: Cytokine synthesis in RA synovial fibroblasts stimulated with tenascin-C, FBG or LPS. It is filed as cell-based, human. To be noted: RA synovial fibroblasts, 24 h. The text has this: RA membrane cells (representing a mixed population of all synovial cell types) were isolated from synovial membranes obtained from patients undergoing joint replacement surgery as previously described (Brennan (1989)). RA synovial fibroblasts were isolated from the mixed population of RA membrane cells as previously described (Brennan (1989)). The study was approved by the local Trust ethics committee (Riverside NHS Research Committee), and waste tissue (synovium after joint replacement surgery) was obtained only after receiving signed informed consent from the patient and anonymyzing the tissue to protect patient identity.
(§1) Immediately after isolation, RA membrane cells and macrophages were cultured at 1×10^5 cells/well in RPMI 1640 containing 10% (v/v) FBS and 100 U/ml (Units/ml) penicillin/streptomycin in 96-well tissue culture plates for 24 hours before stimulation. Synovial fibroblasts (used only at either passage number 2 or 3) were cultured at 1×10^4 cells/well in DMEM containing 10% (v/v) FBS and 100 U/ml penicillin/streptomycin in 96-well tissue culture plates for 24 hours before stimulation.
(§2) Cells were incubated for 24 hours at 37° C. with the indicated doses of tenascin-C and recombinant tenascin-C fragments (1.0 μM-1.0 nM). Cells were also stimulated where indicated with LPS (1 ng/ml for human macrophages, 10 ng/ml for human fibroblasts, RA membrane cells and HEKs, 100 ng/ml for MEFS and BMDMs and 10 ng/ml for HEKS), PAM3 (10 ng/ml for human macrophages, human fibroblasts, and HEKs, 100 ng/ml for MEFs and BMDMs), murine IL-1 (5 ng/ml for MEFS) and murine TNF-α (100 ng/ml for MEFS). Unless specifically stated otherwise rough LPS was used for in vitro studies.
(§3) Supernatants were subsequently examined for the presence of the cytokines TNF-α, IL-6, and IL-8 by enzyme-linked immunosorbent assay (ELISA) according to the manufacturer's instructions. Absorbance was read on a spectrophotometric ELISA plate reader (Labsystems Multiscan Biochromic, Vantaa, Finland) and analyzed using the Ascent software program (Thermo Labsystems, Altrincham, UK).

Test [1] deals with primary human macrophages. Briefly: Cytokine synthesis in primary human macrophages stimulated with tenascin-C or its domains. It is filed as cell-based. As for the experimental part:
Human monocytes were isolated from peripheral blood (London Blood Bank) and macrophages were derived from monocytes after differentiation for 4 days with 100 ng/ml of M-CSF as previously described (Foxwell (1998)).
as §1, §2
Where stated, cells were pre-incubated with 10 μg/ml anti-CD14 antibody, 10 μg/ml IL1 receptor antagonist, 10 μg/ml anti-TLR2 antibody, 25 μg/ml anti-TLR4 antibody, 10 or 25 μg/ml isotype control antibody, 25 μg/ml polymyxin B, or 1 μg/ml msbB LPS, for 30 minutes at 37° C. before stimulation. Where stated, recombinant tenascin-C and FBG, and LPS were boiled for 15 minutes before addition to cells
as §3

In the next test the test system is MyD88. Briefly: Cytokine synthesis in embryonic fibroblasts from MyD88 deficient mice. Format: cell-based. On the procedure:
MEFs express high levels of mRNA of all 9 murine TLRs and are specifically and highly responsive to TLR ligand activation. […] MEFs were isolated from d13 embryos harvested from age-matched, pregnant female wild type, TLR2, TLR4 and null mice (as described in Todaro (1963)). Fibroblasts were cultured at 2×10^4 cells/well in DMEM containing 10% (v/v) FBS and 100 U/ml penicillin/streptomycin in 96-well tissue culture plates for 24 hours before stimulation.
as §2, §3

Test [2] deals with human dermal fibroblasts (HDF). Briefly: Cell adhesion to coated FBG, human dermal fibroblasts. Format: cell-based. The settings on record: coated wells, 45 minutes, crystal violet. As for the experimental part:
(A) The sequence identified to bind integrin ≢vβ3 is shown in white (Yokoyama et al., 2000). Within this sequence two Arginines (shown in black) were identified to be citrullinated. (B) Wells of a 96 well plate were coated with different concentrations of FBG, citrullinated FBG (cFBG), FBG incubated in buffer without Calcium (FBG —Ca^2+), or FBG incubated without PAD (FBG -PAD). As a positive control wells were coated with Fibronectin (FN) (1 ug/ml), and coating with BSA (10 mg/ml) served as negative control. Plates were incubated with human dermal fibroblasts (HDF) or synovial fibroblasts from RA patients (RAF) for 45 minutes and adhesion was measured by determining absorbance of attached cells after staining with crystal violet (0.1%). Data are shown as the mean of at least four independent experiments+s.e.m., *=p<0.05, **=p<0.01.

For a further test, the system named is TLR2 and TLR4 null mice. Description: Intra-articular injection of FBG in TLR2 and TLR4 null mice. Format: in vivo. To be noted: 1 μg FBG, 3 days. On the procedure: Representative sections of the knee joint of TLR2 (a) and TLR4 (b) null mice 3 days after intra-articular injection of 1 μg FBG. Sections are stained with hemotoxylin and eosin. Magnification ×10 (n=5 mice per genotype). (c) Quantification of joint inflammation, bone erosion, cartilage surface erosion and chondrocyte death in the knee joints of TLR2 (white bars) and TLR4 (black bars) null mice 3 days after intra-articular injection of 1 μg FBG. Data represent the mean+/−SD (n=5 per genotype).
Homozygous TLR2 and TLR4 deficient mice on a C57BL/6 background (an inbred strain of mice with a black coat) were obtained from B&K Universal (Hull, UK) Hoshino (1999) and Takeuchi (1999). Homozygous MyD88 deficient mice on a C57BL/6 background were provided by the Sanger Institute (Cambridge, UK). Age matched congenic inbred wild type C57B/L6 mice were obtained from Charles River (Margate, UK). For isolation of mouse embryo fibroblasts one female aged 8-10 weeks was mated with two males aged 8-10 weeks. For isolation of bone marrow derived macrophages mice were female and between 10-12 weeks of age at the time of experimentation.
Coronal tissue sections (4 μm) were cut at 7 depths throughout the joint; 80 μm apart and stained with hematoxylin and eosin or Safranin-O to assess joint pathology. Histopathologic changes were scored using the following parameters as described in Van Lent (2006). […]

In the case of “FBG: recombinant fibrinogen-like globe, 227 amino acid globular domain at the C terminal of tenascin-C”, the IL-6 synthesis result in the test on RA synovial fibroblasts was “to an equal extent to full-length tenascin-C”. For the same substance, in the test with RA synovial fibroblasts, the IL-8 synthesis result is listed as “did not induce”. Also, in test [1] (boiled 15 min, 25 μg/ml polymyxin B pre-incubation), the “heat and polymyxin B sensitivity of cytokine stimulation” value was “heat sensitive and unaffected by polymyxin B”. The “production of TNF-α, IL-6 and IL-8” value in test [1] (human macrophages, 24 h, 1.0 μM-1.0 nM) is listed as “to an equal extent to full-length tenascin-C”. In the test with MyD88 (MEFs from MyD88 deficient mice, 24 h), the cytokine synthesis entry is recorded as “does not stimulate cytokine synthesis”. The “responsiveness after re-transfection of wild type MyD88” value with MyD88 (MyD88 deficient MEFs, data not shown) was “restored the responsiveness”. Besides, the “adhesion of human dermal fibroblasts (HDF)” value in test [2] is on record as “proadhesive”. The joint inflammation entry was “able to induce joint inflammation” in the test with TLR2 and TLR4 null mice (TLR2 null mice); “not in TLR4 null mice” in the test on TLR2 and TLR4 null mice (TLR4 null mice).
